From US5952390A, “10-substituted 1,8-dihydroxy-9(10H) anthracenone pharmaceuticals” (Teva Pharmaceutical Industries Ltd., priority 1998, dated 1999)
Like-named read-outs stand apart in the source and are kept apart here.

How the values were obtained:
5-LO in bovine PMNL = target: T1, 5-LO in bovine PMNL (Bos taurus, UniProt F1MQ78); assay: Bovine PMNL 5-lipoxygenase assay (inhibition of 5-HETE and LTB4 biosynthesis); assay type: cell-based
T1 construct: endogenous in cells; host or cells: polymorphonuclear leukocytes isolated from bovine blood
T1 sequence (F1MQ78 1-674): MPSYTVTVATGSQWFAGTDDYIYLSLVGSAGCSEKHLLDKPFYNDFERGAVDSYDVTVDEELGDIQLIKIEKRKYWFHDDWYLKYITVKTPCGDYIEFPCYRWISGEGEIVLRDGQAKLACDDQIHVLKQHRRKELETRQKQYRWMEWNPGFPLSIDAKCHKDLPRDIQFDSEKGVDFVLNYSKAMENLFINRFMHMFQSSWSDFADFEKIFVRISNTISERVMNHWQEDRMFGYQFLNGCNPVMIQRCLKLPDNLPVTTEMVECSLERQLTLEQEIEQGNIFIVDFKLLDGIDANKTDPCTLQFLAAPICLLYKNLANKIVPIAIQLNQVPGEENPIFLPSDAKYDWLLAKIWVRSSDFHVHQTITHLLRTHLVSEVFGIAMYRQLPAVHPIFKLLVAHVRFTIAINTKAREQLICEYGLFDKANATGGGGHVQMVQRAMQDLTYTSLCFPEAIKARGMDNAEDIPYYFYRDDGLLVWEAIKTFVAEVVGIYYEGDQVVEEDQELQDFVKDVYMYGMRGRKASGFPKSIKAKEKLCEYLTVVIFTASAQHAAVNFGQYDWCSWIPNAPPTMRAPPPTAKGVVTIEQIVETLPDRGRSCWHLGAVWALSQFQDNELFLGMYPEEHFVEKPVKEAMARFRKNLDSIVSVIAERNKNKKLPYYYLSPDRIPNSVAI

[1] = octanol-water; cited from earlier work
psoriasis = conditions: in vivo; cited from earlier work
HaCaT cells [2] = assay: LDH release in HaCaT cells; assay type: cell-based; conditions: for LDH release versus vehicle control, in words: 2 microM, 37° C., four hours
Excerpt: (§1) The biological assay methods were as follows: LDH release as described in Muller K, Huang H-S, Wiegrebe W, J. Med. Chem. 39, 3132-3138 (1996); bovine PMNL 5-LO assay as described in Muller K, Gurster D, Piwek S, Wiegrebe W, J. Med. Chem. 36, 4099-4107 (1993); and degradation of 2-deoxy-D-ribose as described in Muller K, Gurster D, Biochem. Pharmacol. 46, 1695-1704 (1993). HaCaT keratinocyte proliferation assay was generally described in Muller K, Leukel P, Zeireis K, Gawlik I, J. Med. Chem 37, 1660-1669 (1994). Specifically, the HaCaT cells were incubated with the test compounds (2 microM) for four hours at 37° C. Extracellular LDH activity was measured using the UV method with pyruvate and NADH and is expressly in mU/ml. Appropriate controls with the vehicle were performed (P<0.01; N=3, SD<10%).
Geisel J.; Mahrle, G. "Lactate dehydrogenase release as an indicator of dithranol-induced membrane injury in cultured human keratinocytes", Arch. Dermatol. Res., 282, 325-329 (1990)). Cytotoxicity against cell cultures by the potent cell growth inhibitors was assessed by the activity of lactate dehydrogenase (LDH) activity release into the culture medium. The release of LDH is commonly used as an indicator of plasma membrane damage.

HaCaT cells [3] = assay: HaCaT keratinocyte proliferation assay; assay type: cell-based; conditions: Homo sapiens
Excerpt: as §1

[4] = Degradation of 2-deoxy-D-ribose (hydroxyl radical formation)
Description: This assay followed generally the procedures of Gutteridge, J. M. C., "Reactivity of Hydroxyl and Hydroxyl-Like Radicals Discriminated by Release of Thiobarbituric Acid-Reactive Material from Deoxy Sugars, Nucleosides and Benzoate", Biochem. J., 224, 761-767 (1984) and of Laughton, M. J. et al., "Antioxidant and Prooxidant Actions of the Plant Phenolics Quercetin, Gossypol and Myricetin", Biochem. Pharmacol., 38, 2859-2865 (1989). The following reagents were added to glass tubes in the order and at the final concentrations stated. 0.3 ml KH2 PO4 -KOH buffer, pH 7.4 (30 mM), 0.2 ml H2 O bidist., 0.2 ml 2-deoxy-D-ribose (2 mM), 0.2 ml FeCl3 .cndot.6 H2 O (0.1 mM), 0.1 ml anthracenone derivative (75 μM). Stock solutions of the compounds were made up fresh before use. Appropriate blanks and controls with the vehicle (acetonitrile) were conducted. The final reaction volumes were standardized to 1.0 ml. The reaction mixtures were incubated for 2 h at 37° C. in a shaking water bath. 1.0 ml of 2.8% (w/v) trichloroacetic acid and 1.0 ml of 1% (w/v in 0.05 N NaOH) 2-thiobarbituric acid (TBA) were added, and the samples were heated at 100° C. for 15 min and then cooled in an ice bath (5 min). Then 2.0 ml of the reaction mixtures were treated with 0.05 ml of 36% (w/v) HCl and 2.0 ml of 1-butanol and the mixtures were vigorously shaken in a vortex mixer (Heidolph) for 15 s. The organic layer was separated by centrifugation at 3000 rpm (15 min) and the absorbance at 532 nm was measured against butanol. […]
The biological assay methods were as follows: LDH release as described in Muller K, Huang H-S, Wiegrebe W, J. Med. Chem. 39, 3132-3138 (1996); bovine PMNL 5-LO assay as described in Muller K, Gurster D, Piwek S, Wiegrebe W, J. Med. Chem. 36, 4099-4107 (1993); and degradation of 2-deoxy-D-ribose as described in Muller K, Gurster D, Biochem. Pharmacol. 46, 1695-1704 (1993). […] Extracellular LDH activity was measured using the UV method with pyruvate and NADH and is expressly in mU/ml. […]

[5] = Lipid peroxidation in bovine brain phospholipid liposomes; conditions: Table I (Addendum); n = 3 or more; standard errors average 20%; read-out: LPO IC50
Description: Phospholipids were prepared essentially as described by Gutteridge, J. M. C., "The Measurement of Malondialdehyde in Peroxidised Ox-Brain Phospholipid Liposomes", Anal. Biochem., 82, 76-82 (1977). Bovine brain, cooled on ice, was freed from blood vessels and washed repeatedly with 0.15M NaCl, pH 7.4. It was cut to pieces and then macerated with an ultra-turrax, passed through a close-meshed sieve, and extracted four times with four times the volume of acetone. The extraction mixture was filtered by suction to remove the acetone, the residue was dried under vacuum, and then repeatedly extracted with petroleum ether (40-60) using twice the volume of the original brain homogenate. The combined extracts were filtered, dried at 45° C., and dissolved in ether (one fifth of the original brain volume). The mixture was treated with five times the volume of acetone, and the resulting precipitate was collected by suction-filtration, dried and stored under N2 at -20° C. in the dark. Bovine brain phospholipids were weighed into glass tubes and shaken in a vortex mixer (Heidolph) in the presence of five small glass beads (.phi. 4 mm) for 1 min. […]
The following reagents were added to glass tubes in the order and at the final concentrations stated. […] The organic layer was separated by centrifugation at 3000 rpm (15 min) and the absorbance at 532 nm was measured against butanol.

[6] = Reducing activity toward DPPH; conditions: Table I (Addendum); equimolar amount of test compound
Description: This assay followed generally the procedures of Blois, M. S., "Antioxidant Determinations by the Use of a Stable Free Radical", Nature, 181, 1199-1200 (1958) and Kato, K. et al., "Studies on Scavengers of Active Oxygen Species. 1. Synthesis and Biological Activity of 2-O-Alkylascorbic Acids", J. Med. Chem., 31, 793-798 (1988). In time studies, 1 ml of test compound solution (10^-4 M) was added to 1 ml of DPPH solution (10^-4 M), each in acetone/PBS (1+1 V/V), and the reduction of DPPH was followed spectrophotometrically at 516 nm. Plots of the reciprocal of DPPH concentrations against time gave straight lines, and the second-orderrate constants were obtained from the slopes and are expressed as mean values (n=3-6). In the cases where DPPH was very fast approximate values are given and expressed as kDPPH >100 or kDPPH >>100M^-1s^-1.
Because a radical scavenging antioxidant reacts rapidly with the stable free radical 2,2-diphenyl-1-picrylhydrazyl (DPPH), Blois, M. S., "Antioxidant Determination by the Use of a Stable Free Radical", Nature, 181, 1199-1200 (1958); Kato, K. et al., "Studies on Scavengers of Active Oxygen Species. I. Synthesis and Biological Activity of 2-O-Alkylascorbic Acids", J. Med. Chem., 31, 793-798 (1988), the reactivities of the new compounds with DPPH were determined by decrease in absorbance at 516 nm.

[7] = system: cultured human keratinocytes; conditions: cited from earlier work
[8] = system: LTB4 production in human neutrophils; conditions: depending on cell density; cited from earlier work
skin = conditions: topical/therapeutic application; cited from earlier work
[9] = pH 7.5; cited from earlier work
[10] = Stability at pH 7.4 in phosphate buffer under lipoxygenase assay incubation; assay type: physicochemical; conditions: pH 7.4, phosphate buffer, lipoxygenase assay conditions
Description: In connection with confirming the resistance to metabolic degradation of the compounds of the invention, the following procedures will be of interest. C-10-acylated compounds of Tanzer et al., Arch. Pharm., 322, 441-444 (1989) were determined to be stable at pH 7.5 when incubated for glucose-6-phosphate dehydrogenase inhibition assays. […] The compounds of the present invention are stable at pH 7.4 (in phosphate buffer) when incubated for the lipoxygenase assay. […] These procedures are expected to be useful in confirming the metabolic stability of the compounds of the invention.

[11] = Table IV, 2 μM test compound, N = 3, SD < 10%
[12] = Table IV, N = 3, P < 0.01, read-out: AA IC50 (antiproliferative activity)
[13] = Table V, 2 μM test compound (Example 8)

O=C1c2c(O)cccc2C(C(=O)CCCc2ccccc2)c2cccc(O)c21 [Ip, 1,8-Dihydroxy-10-(1-oxo-4-phenylbutyl)-9(10H)-anthracenone]
effectiveness as inhibitor of lipoxygenase relative to anthralin (5-LO in bovine PMNL; compared with anthralin): ~100 times

CC(=O)Oc1cccc2cc3cccc(OC(C)=O)c3c(OC(C)=O)c12 [triacetoxyanthracene]
inhibition at 30 µM (5-LO in bovine PMNL; at 30 μM, bovine PMNL): 15%

c1ccc2ccccc2c1 [naphthalene]
log P (known values of calibration compounds) [1]: 3.44

O=C1c2ccccc2Cc2cccc(O)c21 [1-hydroxy-9(10H)-anthracenone]
antipsoriatic efficacy, in words (psoriasis): effective in the treatment of psoriasis

Cc1ccc(CC(=O)C2c3cccc(O)c3C(=O)c3c(O)cccc32)cc1 [Compound Iv, 1,8-dihydroxy-10-[2-(4-methylphenyl)-1-oxoethyl]-9(10H)-anthracenone]
LDH release versus vehicle control, in words (HaCaT cells [2]): not significantly different as compared to vehicle controls
LDH release (HaCaT cells [2]; [11]): 145 mU
IC50 (5-LO in bovine PMNL): 0.6 µM
IC50 (HaCaT cells [3]; [12]): 0.7 µM
DD(OH), deoxyribose degradation ([4]; Table IV, released by 75 μm test compound (so in the source)): < 0.3 μmol of malondialdehyde/mmol o

O=C1c2c(O)cccc2Cc2cccc(O)c21 [Anthralin, 1,8-dihydroxy-9(10H)-anthracenone]
IC50 [5]: 12 µM
kDPPH [6]: 24.2 ± 4.2 M⁻¹ s⁻¹
LDH release versus vehicle control, in words (HaCaT cells [2]): significantly exceeded that of the vehicle control
LDH release (HaCaT cells [2]; [11]): 294 mU
LDH release (HaCaT cells [2]; [13]): 294 mU
membrane damage, in words [7]: cause membrane damage, but did not directly lead to substantial membrane destruction
IC50 [8]: 7 to 74 µM
irritation, in words (skin): non-affected skin surrounding a psoriatic lesion to which anthralin is applied is frequently irritated
stability under G6PD inhibition assay incubation, in words [9]: degraded almost completely
antipsoriatic efficacy, in words (psoriasis): effective in the treatment of psoriasis
time to degradation [10]: ≤ 2 h
IC50 (HaCaT cells [3]; [12]): 0.7 µM

CC(CCC(=O)C1c2cccc(O)c2C(=O)c2c(O)cccc21)c1ccccc1 (racemic) [Compound Iw, (R,S)-1,8-dihydroxy-10-(1-oxo-4-phenylpentyl)-9(10H)-anthracenone]
LDH release (HaCaT cells [2]; [13]): 171 mU
IC50 (5-LO in bovine PMNL; Table V, bovine PMNL): 0.3 µM
IC50 (HaCaT cells [3]; Table V, footnotes same as in Example 8, read-out: AA IC50 (antiproliferative activity)): 0.8 µM
DD(OH), deoxyribose degradation ([4]; Table V, footnotes same as in Example 8): < 0.3 μmol of malondialdehyde/mmol o

CC(Cc1ccc(O)c(O)c1)C(C)Cc1ccc(O)c(O)c1 (centres unmarked) [Nordihydroguaiaretic acid (NDGA), Nordihydroguaiaretic acid]
IC50 (5-LO in bovine PMNL): 0.4 µM
